# Publication PMC4742142, “Identification of novel, in vivo active Chk1 inhibitors utilizing structure guided drug design” (Oncotarget, 2015)
# Key:
# Chk1 [1] = target: T1, Chk1 (Homo sapiens, UniProt O14757); assay: Etoposide induced Chk1 autophosphorylation (pS296) in HT29 cells, immunoblotting; format: cell-based
# T1 sequence (O14757 1-476): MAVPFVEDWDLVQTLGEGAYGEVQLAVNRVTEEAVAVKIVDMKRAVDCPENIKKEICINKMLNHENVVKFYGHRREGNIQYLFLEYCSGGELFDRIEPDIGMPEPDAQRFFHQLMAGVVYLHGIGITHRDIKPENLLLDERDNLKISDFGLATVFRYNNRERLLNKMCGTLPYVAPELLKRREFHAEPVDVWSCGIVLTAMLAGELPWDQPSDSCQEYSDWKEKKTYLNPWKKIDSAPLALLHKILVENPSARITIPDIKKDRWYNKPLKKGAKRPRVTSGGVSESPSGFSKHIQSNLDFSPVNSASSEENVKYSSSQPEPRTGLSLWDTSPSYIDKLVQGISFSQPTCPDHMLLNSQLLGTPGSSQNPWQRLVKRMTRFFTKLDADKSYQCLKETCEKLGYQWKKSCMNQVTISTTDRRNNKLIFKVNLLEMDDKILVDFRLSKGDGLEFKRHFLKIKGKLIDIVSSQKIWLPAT
# Description: (§1) Figure 3 Effect of V158411 on etoposide, gemcitabine and camptothecin induced DNA damage checkpoint and cell cycle proteins A. HT29 cells were exposed to increasing concentrations of V158411 for 1 hour followed by 25 μM etoposide for a further 5 hours. Auto-phosphorylation of Chk1 and Chk2 was determined by immunoblotting. B. HT29 cells were treated with gemcitabine (25 nM) or camptothecin (50 nM) for 16 hours followed by increasing doses of V158411 for a further 24 hours. C. HT29 cells were treated with 500 nM V158411 for 1 hour, media removed and replaced with drug free. Cells were harvested at the indicated time points post the removal of V158411. D. HT29 cells were treated with 0 or 100 nM camptothecin for 16 hours followed by V158411 for 2 - 24 hours. After the indicated time, media was removed and replaced with drug free media. All cells were harvested 24 hours after the initial addition of V158411. Protein expression was characterized by immunoblotting as described in materials and methods.
# Anti-pHistone H3 (S10) was obtained from Millipore; pCdc2 (Y15), pCdc25C (S216), Chk1, pChk1 (S317), pChk2 (S516), Cyclin B1, pH2AX (S139), GAPDH and Actin from Cell Signaling Technologies and pChk1 (S296) from Abcam. Treated and untreated cells were washed once with PBS and lysed in RIPA buffer containing protease and phosphatase inhibitor cocktail (Roche). Protein concentration was determined using BCA kit (Pierce). Equal amounts of lysate were separated by SDS-PAGE and western blot analysis conducted using the antibodies indicated above.
# Chk1 [2] = target: T1, Chk1; assay: Western blotting of pChk1 (S296) in HT29 cells (gemcitabine or camptothecin; washout); format: cell-based; conditions: 500 nM for 1 hour then drug free media
# Description: as §1
# Anti-pHistone H3 (S10) was obtained from Millipore; pCdc2 (Y15), pCdc25C (S216), Chk1, pChk1 (S317), pChk2 (S516), Cyclin B1, pH2AX (S139), GAPDH and Actin from Cell Signaling Technologies and pChk1 (S296) from Abcam. […] Protein concentration was determined using BCA kit (Pierce). […]
# [3] = system: panel of human cancer cell lines; assay: Single agent cytotoxicity, whole panel; format: cell-based; conditions: range over the cell lines, read-out: GI50s across the panel
# Description: All cells were obtained from the American Type Culture Collection and maintained as low passage stocks. Cells were routinely cultured in DMEM or RPMI1640 containing 10% FCS and 1% penicillin / streptomycin (Invitrogen). The cytotoxicity of V158411 was determined following exposure of cells in 96 well plates using a 10-point titration for 72 hours. Cell proliferation was determined using sulphorhodamine B staining following protein precipitation with 10% TCA.
# HT29 cells = assay: Clonogenicity (colony formation) assay; format: cell-based, human; conditions: HT29, 300 nM V158411 with gemcitabine, camptothecin or SN38
# Description: HT29 cells were plated at a density of 300 cells per well in 6-well plates and allowed to attach for 4 hours. Cells were treated with gemcitabine, camptothecin or SN38 in the absence or presence of V158411 for 24 hours followed by drug free media for a further 14 days. Resulting colonies were stained and fixed with 0.1% crystal violet in 10% formaldehyde.
structure (smiles),measurement,setting,value
CN(C)CC(C)(C)COc1ccc2[nH]c(-c3cc(NC(=O)c4cnn(Cc5ccccc5)c4)c[nH]c3=O)cc2c1 [V158411],IC50 for Chk1 autophosphorylation and EC50 for H2AX phosphorylation lower than single agent GI50,Chk1 [1],around 10 fold
same,IC50,Chk1 [1]; 1 hour compound then 25 μM etoposide 5 hours,0.048 µM
same,cellular selectivity for Chk1 versus Chk2,Chk1 [1]; etoposide,19 fold
same,duration of Chk1 inhibition (pChk1 S296) after removal of compound from the culture media,Chk1 [2],at least 24 hours
same,IC50,[3],0.5 to 9.5 µM
same,effect on fraction of cells killed in colony formation,HT29 cells,significantly increased the fraction of cells killed by all three agents
